Experiments:
PYK2 = PYK2 (Homo sapiens (Human), UniProt Q14289); test: Biochemical assay for PYK2 activity (LANCE TR-FRET, ULight-poly Glu,Ala,Tyr substrate); conditions: GST-tagged PYK2, 40 min reaction
Method in brief: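 GST-tagged human PYK2 (2 nM working stock) with ULight-poly Glu,Ala,Tyr (1:1:1) peptide (666 nM working stock) and ATP (46.6 μM working stock) in 40 mM Tris pH 7.5, MgCl2, 1 mM DTT, 1 mM CHAPS; 40 min reaction, EDTA quench. Phosphotyrosine read by LANCE Eu-anti-phosphotyrosine (PY20) TR-FRET after 60 min; 12-point 3-fold compound dilutions.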

FAK = FAK (Homo sapiens (Human), UniProt Q05397); test: Biochemical assay for FAK activity (LANCE TR-FRET, ULight-poly Glu,Ala,Tyr substrate); conditions: GST-tagged FAK, 120 min reaction
Method in brief: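 GST-tagged FAK (2.5 nM working stock) with ULight-poly Glu,Ala,Tyr (666 nM stock) and ATP (33.3 μM stock) in Tris pH 7.5/MgCl2/DTT/CHAPS buffer with BSA, 120 min; EDTA-quenched. Phosphorylation read by TR-FRET with Eu-anti-phosphotyrosine (PY20) antibody after 60 min. Compounds tested as 12-point 3-fold dilutions.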

Sequence of FAK (Q05397 whole entry): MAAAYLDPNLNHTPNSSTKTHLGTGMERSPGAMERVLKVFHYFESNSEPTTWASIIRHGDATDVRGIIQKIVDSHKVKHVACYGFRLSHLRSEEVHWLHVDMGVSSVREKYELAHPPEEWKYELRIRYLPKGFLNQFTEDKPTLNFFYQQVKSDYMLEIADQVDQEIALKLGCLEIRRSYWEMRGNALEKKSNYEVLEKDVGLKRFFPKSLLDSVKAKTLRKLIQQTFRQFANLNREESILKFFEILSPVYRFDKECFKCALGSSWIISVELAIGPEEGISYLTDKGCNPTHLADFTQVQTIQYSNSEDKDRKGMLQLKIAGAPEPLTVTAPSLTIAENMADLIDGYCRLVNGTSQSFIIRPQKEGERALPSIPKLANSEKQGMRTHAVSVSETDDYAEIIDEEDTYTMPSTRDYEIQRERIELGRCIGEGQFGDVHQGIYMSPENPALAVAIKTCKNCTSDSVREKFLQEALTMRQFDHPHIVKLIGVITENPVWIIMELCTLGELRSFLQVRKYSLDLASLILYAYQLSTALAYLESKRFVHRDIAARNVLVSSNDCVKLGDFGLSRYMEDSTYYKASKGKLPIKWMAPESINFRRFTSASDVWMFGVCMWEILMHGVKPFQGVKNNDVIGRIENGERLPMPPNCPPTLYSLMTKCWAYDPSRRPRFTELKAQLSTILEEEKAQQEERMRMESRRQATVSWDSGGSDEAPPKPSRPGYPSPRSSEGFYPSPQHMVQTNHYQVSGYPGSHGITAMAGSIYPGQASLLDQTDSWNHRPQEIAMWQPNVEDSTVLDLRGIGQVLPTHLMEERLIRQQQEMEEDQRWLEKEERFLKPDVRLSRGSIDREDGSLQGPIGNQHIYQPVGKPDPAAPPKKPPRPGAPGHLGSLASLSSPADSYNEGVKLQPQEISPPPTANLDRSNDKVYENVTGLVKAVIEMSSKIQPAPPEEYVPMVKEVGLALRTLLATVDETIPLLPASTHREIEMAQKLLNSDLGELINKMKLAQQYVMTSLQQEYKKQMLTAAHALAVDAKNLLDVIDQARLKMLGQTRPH
Sequence of PYK2 (Q14289 whole entry): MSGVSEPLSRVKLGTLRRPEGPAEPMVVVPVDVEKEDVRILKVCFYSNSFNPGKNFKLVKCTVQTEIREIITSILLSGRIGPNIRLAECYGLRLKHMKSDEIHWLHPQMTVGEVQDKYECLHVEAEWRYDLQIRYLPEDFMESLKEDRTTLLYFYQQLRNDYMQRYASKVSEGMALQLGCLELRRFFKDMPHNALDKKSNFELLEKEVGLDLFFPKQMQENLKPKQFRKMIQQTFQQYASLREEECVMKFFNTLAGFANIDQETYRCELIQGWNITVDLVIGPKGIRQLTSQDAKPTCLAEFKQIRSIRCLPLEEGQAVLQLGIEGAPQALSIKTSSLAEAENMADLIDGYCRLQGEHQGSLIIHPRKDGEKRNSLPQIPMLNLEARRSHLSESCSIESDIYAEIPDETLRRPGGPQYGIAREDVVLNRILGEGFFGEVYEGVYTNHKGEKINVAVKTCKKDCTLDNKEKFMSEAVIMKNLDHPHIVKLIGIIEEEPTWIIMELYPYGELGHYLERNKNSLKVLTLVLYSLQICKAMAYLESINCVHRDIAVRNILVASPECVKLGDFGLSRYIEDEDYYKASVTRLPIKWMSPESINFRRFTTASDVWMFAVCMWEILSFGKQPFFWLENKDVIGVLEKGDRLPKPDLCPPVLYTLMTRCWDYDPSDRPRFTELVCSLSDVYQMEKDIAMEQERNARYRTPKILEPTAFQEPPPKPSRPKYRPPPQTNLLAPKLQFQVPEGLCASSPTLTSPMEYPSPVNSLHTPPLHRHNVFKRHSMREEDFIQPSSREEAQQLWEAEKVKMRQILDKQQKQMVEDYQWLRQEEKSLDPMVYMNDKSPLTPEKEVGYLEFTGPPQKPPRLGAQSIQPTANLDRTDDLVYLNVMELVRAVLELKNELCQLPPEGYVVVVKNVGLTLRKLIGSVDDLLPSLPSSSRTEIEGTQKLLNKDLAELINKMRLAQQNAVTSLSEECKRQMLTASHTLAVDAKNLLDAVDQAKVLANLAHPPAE

| Compound | IC50 (PYK2) [nM] | IC50 (FAK) [nM] |
| --- | --- | --- |
| CNS(=O)(=O)c1ccc(Nc2nc3c(c(Nc4ccccc4S(=O)(=O)NC(C)C)n2)CCN3)cc1 [Example 64, N-isopropyl-2-(2-(4-(N-methylsulfamoyl)phenylamino)-6,7-dihydro-5H-pyrrolo[2,3-d]pyrimidin-4-ylamino)benzenesulfonamide] | < 20 | < 20 |
| CC(C)NS(=O)(=O)c1ccccc1Nc1nc(Nc2ccc(C(=O)N3CCOCC3)cc2)nc2c1CCN2 [Example 65, N-isopropyl-2-(2-(4-(morpholine-4-carbonyl)phenylamino)-6,7-dihydro-5H-pyrrolo[2,3-d]pyrimidin-4-ylamino)benzenesulfonamide] | < 20 | < 20 |
| Cc1cc(N2CCOCC2)ccc1Nc1nc2c(c(Nc3ccccc3S(=O)(=O)NC(C)C)n1)CCN2 [Example 66, N-isopropyl-2-(2-(2-methyl-4-morpholinophenylamino)-6,7-dihydro-5H-pyrrolo[2,3-d]pyrimidin-4-ylamino)benzenesulfonamide] | < 50 | < 20 |
| CC(C)NS(=O)(=O)c1ccccc1Nc1nc(Nc2ccc(C(C)O)cc2)nc2c1CCN2 (stereo not shown) [Example 69, 2-(2-(4-(1-hydroxyethyl)phenylamino)-6,7-dihydro-5H-pyrrolo[2,3-d]pyrimidin-4-ylamino)-N-isopropylbenzenesulfonamide] | < 20 | < 20 |
| COc1cc(OCCN2CCOCC2)ccc1Nc1nc2c(c(Nc3ccccc3S(=O)(=O)NC(C)C)n1)CCN2 [Example 70, N-isopropyl-2-(2-(2-methoxy-4-(2-morpholinoethoxy)phenylamino)-6,7-dihydro-5H-pyrrolo[2,3-d]pyrimidin-4-ylamino)benzenesulfonamide] | < 20 | < 20 |
| CC(C)NS(=O)(=O)c1ccccc1Nc1nc(Nc2ccc(OC(F)(F)F)cc2)nc2c1CCN2 [Example 71, N-isopropyl-2-(2-(4-(trifluoromethoxy)phenylamino)-6,7-dihydro-5H-pyrrolo[2,3-d]pyrimidin-4-ylamino)benzenesulfonamide] | < 100 | < 200 |
| CC(C)NC(C)c1ccc(Nc2nc3c(c(Nc4ccccc4S(=O)(=O)NC(C)C)n2)CCN3)cc1 (stereo not shown) [Example 72, N-isopropyl-2-(2-(4-(1-(isopropylamino)ethyl)phenylamino)-6,7-dihydro-5H-pyrrolo[2,3-d]pyrimidin-4-ylamino)benzenesulfonamide] | < 20 | < 20 |
| CC(C)NS(=O)(=O)c1ccccc1Nc1nc(Nc2cccc(NS(C)(=O)=O)c2)nc2c1CCN2 [Example 73, N-isopropyl-2-(2-(3-(methylsulfonamido)phenylamino)-6,7-dihydro-5H-pyrrolo[2,3-d]pyrimidin-4-ylamino)benzenesulfonamide] | < 20 | < 20 |
| CNC(=O)c1cccc(Nc2nc3c(c(Nc4ccccc4S(=O)(=O)NC(C)C)n2)CCN3)c1 [Example 74, 3-(4-(2-(N-isopropylsulfamoyl)phenylamino)-6,7-dihydro-5H-pyrrolo[2,3-d]pyrimidin-2-ylamino)-N-methylbenzamide] | < 50 | < 20 |
| CC(=O)Nc1cccc(Nc2nc3c(c(Nc4ccccc4S(=O)(=O)NC(C)C)n2)CCN3)c1 [Example 75, N-(3-(4-(2-(N-isopropylsulfamoyl)phenylamino)-6,7-dihydro-5H-pyrrolo[2,3-d]pyrimidin-2-ylamino)phenyl)acetamide] | < 20 | < 20 |
| COc1cc(-n2ccnc2)ccc1Nc1nc2c(c(Nc3ccccc3S(=O)(=O)NC(C)C)n1)CCN2 [Example 77, 2-(2-(4-(1H-imidazol-1-yl)-2-methoxyphenylamino)-6,7-dihydro-5H-pyrrolo[2,3-d]pyrimidin-4-ylamino)-N-isopropylbenzenesulfonamide] | < 500 | < 500 |
| CC(C)NS(=O)(=O)c1ccccc1Nc1nc(Nc2ccc(C(=O)N3CCCC3)cc2)nc2c1CCN2 [Example 78, N-isopropyl-2-(2-(4-(pyrrolidine-1-carbonyl)phenylamino)-6,7-dihydro-5H-pyrrolo[2,3-d]pyrimidin-4-ylamino)benzenesulfonamide] | < 20 | < 20 |
| COc1cc(-n2ccccc2=O)ccc1Nc1nc2c(c(Nc3ccccc3S(=O)(=O)NC(C)C)n1)CCN2 [Example 83, N-isopropyl-2-(2-(2-methoxy-4-(2-oxopyridin-1(2H)-yl)phenylamino)-6,7-dihydro-5H-pyrrolo[2,3-d]pyrimidin-4-ylamino)benzenesulfonamide] | < 20 | < 20 |
| COc1cc(NCCN2CCOCC2)ccc1Nc1nc2c(c(Nc3ccccc3S(=O)(=O)NC(C)C)n1)CCN2 [Example 85, N-isopropyl-2-(2-(2-methoxy-4-(2-morpholinoethylamino)phenylamino)-6,7-dihydro-5H-pyrrolo[2,3-d]pyrimidin-4-ylamino)benzenesulfonamide] | < 20 | < 20 |
| COc1cc(-n2ncnn2)ccc1Nc1nc2c(c(Nc3ccccc3S(=O)(=O)NC(C)C)n1)CCN2 [Example 88, N-isopropyl-2-(2-(2-methoxy-4-(2H-tetrazol-2-yl)phenylamino)-6,7-dihydro-5H-pyrrolo[2,3-d]pyrimidin-4-ylamino)benzenesulfonamide] | < 200 | < 50 |
| COc1cc(-n2cc(C)nc2C)ccc1Nc1nc2c(c(Nc3ccccc3S(=O)(=O)NC(C)C)n1)CCN2 [Example 90, 2-(2-(4-(2,4-dimethyl-1H-imidazol-1-yl)-2-methoxyphenylamino)-6,7-dihydro-5H-pyrrolo[2,3-d]pyrimidin-4-ylamino)-N-isopropylbenzenesulfonamide] | < 20 | < 20 |

More lines, now with the values ahead:

| IC50 (PYK2) [nM] | IC50 (FAK) [nM] | Compound |
| --- | --- | --- |
| < 100 | < 50 | COc1cc(N2CCCC2)ccc1Nc1nc2c(c(Nc3ccccc3S(=O)(=O)NC(C)C)n1)CCN2 [Example 67, N-isopropyl-2-(2-(2-methoxy-4-(pyrrolidin-1-yl)phenylamino)-6,7-dihydro-5H-pyrrolo[2,3-d]pyrimidin-4-ylamino)benzenesulfonamide] |
| < 200 | < 50 | COc1cc(N2CCCCC2)ccc1Nc1nc2c(c(Nc3ccccc3S(=O)(=O)NC(C)C)n1)CCN2 [Example 68, N-isopropyl-2-(2-(2-methoxy-4-(piperidin-1-yl)phenylamino)-6,7-dihydro-5H-pyrrolo[2,3-d]pyrimidin-4-ylamino)benzenesulfonamide] |
| < 20 | < 20 | COc1cc(N2CCC(N(C)C)CC2)ccc1Nc1nc2c(c(Nc3ccccc3S(=O)(=O)NC(C)C)n1)CCN2 [Example 76, 2-(2-(4-(4-(dimethylamino)piperidin-1-yl)-2-methoxyphenylamino)-6,7-dihydro-5H-pyrrolo[2,3-d]pyrimidin-4-ylamino)-N-isopropylbenzenesulfonamide] |
| < 20 | < 20 | COc1cc(N2CCC(CO)CC2)ccc1Nc1nc2c(c(Nc3ccccc3S(=O)(=O)NC(C)C)n1)CCN2 [Example 79, 2-(2-(4-(4-(hydroxymethyl)piperidin-1-yl)-2-methoxyphenylamino)-6,7-dihydro-5H-pyrrolo[2,3-d]pyrimidin-4-ylamino)-N-isopropylbenzenesulfonamide] |
| < 100 | < 20 | COc1cc(N2CCC(O)C2)ccc1Nc1nc2c(c(Nc3ccccc3S(=O)(=O)NC(C)C)n1)CCN2 (stereo not shown) [Example 80, 2-(2-(4-(3-hydroxypyrrolidin-1-yl)-2-methoxyphenylamino)-6,7-dihydro-5H-pyrrolo[2,3-d]pyrimidin-4-ylamino)-N-isopropylbenzenesulfonamide] |
| < 50 | < 20 | COc1cc(N2CCCC(O)C2)ccc1Nc1nc2c(c(Nc3ccccc3S(=O)(=O)NC(C)C)n1)CCN2 (stereo not shown) [Example 81, 2-(2-(4-(3-hydroxypiperidin-1-yl)-2-methoxyphenylamino)-6,7-dihydro-5H-pyrrolo[2,3-d]pyrimidin-4-ylamino)-N-isopropylbenzenesulfonamide] |
| < 100 | < 50 | COc1cc(N2C(C)COCC2C)ccc1Nc1nc2c(c(Nc3ccccc3S(=O)(=O)NC(C)C)n1)CCN2 (stereo not shown) [Example 84, 2-(2-(4-(3,5-dimethylmorpholino)-2-methoxyphenylamino)-6,7-dihydro-5H-pyrrolo[2,3-d]pyrimidin-4-ylamino)-N-isopropylbenzenesulfonamide] |
| < 20 | < 20 | COc1cc(N2CCC(O)CC2)ccc1Nc1nc2c(c(Nc3ccccc3S(=O)(=O)NC(C)C)n1)CCN2 [Example 86, 2-(2-(4-(4-hydroxypiperidin-1-yl)-2-methoxyphenylamino)-6,7-dihydro-5H-pyrrolo[2,3-d]pyrimidin-4-ylamino)-N-isopropylbenzenesulfonamide] |
| < 20 | < 20 | COc1cc(N2CCS(=O)(=O)CC2)ccc1Nc1nc2c(c(Nc3ccccc3S(=O)(=O)NC(C)C)n1)CCN2 [Example 87, 2-(2-(4-(4-(S,S-dioxothio)piperidin-1-yl)-2-methoxyphenylamino)-6,7-dihydro-5H-pyrrolo[2,3-d]pyrimidin-4-ylamino)-N-isopropylbenzenesulfonamide] |
| < 20 | < 20 | COc1cc(N2CCC(N(C)C)C2)ccc1Nc1nc2c(c(Nc3ccccc3S(=O)(=O)NC(C)C)n1)CCN2 (stereo not shown) [Example 89, 2-(2-(4-(3-(dimethylamino)pyrrolidin-1-yl)-2-methoxyphenylamino)-6,7-dihydro-5H-pyrrolo[2,3-d]pyrimidin-4-ylamino)-N-isopropylbenzenesulfonamide] |
